Article PMC8467576, “Novel Ubiquitin Specific Protease-13 Inhibitors Alleviate Neurodegenerative Pathology” (Metabolites, 2021)

How the values were obtained:
[1] = system: ptau396; test: p-Tau ser396 ELISA in TgA53T mice; format: in vivo, mouse; settings: 10 mg/Kg or 40 mg/Kg I.P. daily for 7 days
Experimental: Therefore, we also measured tau levels. There was no effect on murine tau levels (Figure 4D).
BK50118-C is one of novel small molecule inhibitors of USP13 synthesized in our laboratory. For BK50118-C treatment, approximately 15 months old (±1 month) male and female TgA53T mice were treated with intraperitoneal injection of vehicle (DMSO) or BK50118-C at the daily dosage of 10 mg/Kg or 40 mg/Kg for 7 days. Animals were age and sex-matched in their respective treatment cohorts. All animals were sacrificed after treatment. All experiments were conducted in full compliance with the recommendations of Georgetown University Animal Care and Use Committee. These experiments were conducted under animal protocol No. 2016-1194 titled, Misfolded Protein Clearance in Neurodegeneration, which was approved by the Georgetown University IACUC. Protocol Information: IACUC Protocol Number: 2016-1194. Protocol Approval Date: 14 September 2020 Expiration Date: 14 September 2023.
The ELISA for USP13 (MyBioSource, Cat # MBS9335287, San Diego, CA, USA), Human alpha-synuclein (Biolegend, Cat # 844101, San Diego, CA, USA) and specific p-Tau ser396 (Invitrogen, KHB7031, Waltham, MA, USA) were performed on cell or brain tissue extracts as described above according to manufacturers’ protocol.

[2] = system: SH-SY5Y human neuroblastoma cells; test: LDH and MTT cell viability assays; format: cell-based; settings: 5 h, compared to DMSO or untreated controls
Experimental: BK50118-B and BK50118-C (Figure 2C,D) decreased cell viability near and above 100 μM compared to DMSO or untreated controls. CL3-499 (Figure 2G) decreased cell viability near and above 1 mM compared to DMSO or untreated controls.
SH-SY5Y cells were transiently transfected for 24 h with human wild-type α-synuclein using Fugene HD transfection reagent (Promega, E2311, Madison, WI, USA) according to manufacturer’s protocol. Cells were treated with 1 mM, 0.1 mM, 0.01 mM, 1 µM, 0.1 µM, 0.01 µM and 0.001 µM of each novel compounds (BK50118-A, BK50118-B, BK50118-C, CL3-499, CL3-512 and CL3-514) dissolved in DMSO for 5 h. Cells were then harvested on ice by removing culture medium and adding 0.2 mL 1x sodium-tris, EDTA, NP-40 (STEN) buffer (50 mM Tris (pH 7.6), 150 mM NaCl, 2 mM EDTA, 0.2 % NP-40, 0.2 % with Halt protease and phosphatase inhibitor solution (ThermoFisher, 78446). Cells were detached with a cell scraper and collected into centrifuge tubes and incubated at 4 °C for 30 min with agitation. Samples were stored at −80 °C and used for ELISA analyses. For cell viability assay, SHSY-5Y cells stably expressing human wild-type alpha-synuclein were treated with 1 mM, 0.1 mM, 0.01 mM, 1 µM, 0.1 µM, 0.01 µM and 0.001 µM of each novel compound (BK50118-A, BK50118-B, BK50118-C, CL3-499, CL3-512 and CL3-514) dissolved in DMSO for 5 h. Cell viability was determined via lactate dehydrogenase assay on culture media (Thermofisher, 88954) and MTT assay on plated cells (Thermofisher, V13154).

Fc1ccc2nccc(OCc3ccccc3)c2c1 [BK50118-C, 4-benzyloxy-6-fluoroquinoline]
effect on murine tau levels (ptau396 ELISA) [1]: no effect | concentration near and above which cell viability decreased [2]: ≥ 100 µM
